According to article PMC3813382 (The Journal of General Physiology, 2013):

Target: T1, Slo2.1 (Homo sapiens, UniProt Q6UVM3)
T1 sequence (Q6UVM3 1-1135): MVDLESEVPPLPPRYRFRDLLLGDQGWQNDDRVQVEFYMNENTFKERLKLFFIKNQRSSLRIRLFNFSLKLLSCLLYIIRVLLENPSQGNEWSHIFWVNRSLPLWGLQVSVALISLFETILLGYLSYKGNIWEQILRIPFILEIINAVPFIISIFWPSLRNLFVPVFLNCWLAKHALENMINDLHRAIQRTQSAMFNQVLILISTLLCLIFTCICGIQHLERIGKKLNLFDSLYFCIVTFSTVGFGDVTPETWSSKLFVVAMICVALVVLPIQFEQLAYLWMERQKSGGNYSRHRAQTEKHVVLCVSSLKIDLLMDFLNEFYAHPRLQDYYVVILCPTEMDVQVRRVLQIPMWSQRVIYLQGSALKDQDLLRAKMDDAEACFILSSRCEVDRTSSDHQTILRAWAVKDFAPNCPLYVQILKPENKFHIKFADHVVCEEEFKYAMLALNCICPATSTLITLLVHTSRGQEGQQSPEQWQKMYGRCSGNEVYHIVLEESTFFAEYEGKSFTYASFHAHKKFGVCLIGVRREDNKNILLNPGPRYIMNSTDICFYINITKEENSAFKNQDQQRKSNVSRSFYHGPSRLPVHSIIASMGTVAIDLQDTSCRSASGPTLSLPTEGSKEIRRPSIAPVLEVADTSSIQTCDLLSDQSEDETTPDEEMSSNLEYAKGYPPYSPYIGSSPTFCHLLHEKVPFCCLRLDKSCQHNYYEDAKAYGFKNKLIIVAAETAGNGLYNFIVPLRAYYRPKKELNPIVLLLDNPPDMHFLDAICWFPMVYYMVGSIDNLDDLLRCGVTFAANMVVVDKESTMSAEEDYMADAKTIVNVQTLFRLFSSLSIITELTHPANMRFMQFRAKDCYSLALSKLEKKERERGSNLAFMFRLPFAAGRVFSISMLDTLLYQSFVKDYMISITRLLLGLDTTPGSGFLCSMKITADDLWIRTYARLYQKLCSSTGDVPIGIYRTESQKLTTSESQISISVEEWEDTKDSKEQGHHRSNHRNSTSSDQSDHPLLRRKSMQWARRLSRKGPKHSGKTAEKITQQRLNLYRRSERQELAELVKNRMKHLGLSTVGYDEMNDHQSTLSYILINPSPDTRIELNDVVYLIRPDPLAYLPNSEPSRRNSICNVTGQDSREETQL
Experiment: Excised inside-out macropatch recordings of ISlo2.1 from oocytes
Type: cell-based
Conditions: 10 µM in bath (cytosolic) solution

effect on run-down of macroscopic ISlo2.1 in excised patches: preventable
Compound: CCCCCCCC(=O)OC[C@H](COP(=O)(O)O[C@@H]1[C@H](O)[C@H](O)[C@@H](OP(=O)(O)O)[C@H](OP(=O)(O)O)[C@H]1O)OC(=O)CCCCCCC [PI(4,5)P2 diC8, phosphatidylinositol 4,5-bisphosphate diC8]
